From US6858641B2, “Substituted indolinones” (Boehringer Ingelheim Pharma KG, priority 2001, dated 2005)

tested on: Human umbilical endothelial cells (HUVEC); experiment: Inhibition of VEGF165-stimulated HUVEC proliferation (3H-thymidine incorporation); assay type: cell-based; details: HUVEC stimulated with 5 ng/ml VEGF165 and 10 μg/ml heparin; 76 hours incubation then 16 hours 3H-thymidine; concentration inhibiting proliferation by 50%
Protocol: Human umbilical endothelial cells (HUVEC) were cultivated in IMDM (Gibco BRL), supplemented with 10% foetal calf serum (FBS) (Sigma), 50 μM of β-mercaptoethanol (Fluka), standard antibiotics, 15 μg/ml of endothelial cell growth factor (ECGS, Collaborative Biomedical Products) and 100 μg/ml of heparin (Sigma) on gelatine-coated culture dishes (0.2% gelatine, Sigma) at 37° C., under 5% CO2 in a water-saturated atmosphere.
In order to investigate the inhibitory activity of the compounds according to the invention the cells were “starved” for 16 hours, i.e. kept in culture medium without growth factors (ECGS+heparin). The cells were detached from the culture dishes using trypsin/EDTA and washed once in serum-containing medium. Then they were seeded out in amounts of 2.5×10^3 cells per well.
The proliferation of the cells was stimulated with 5 ng/ml of VEGF165 (vascular endothelial growth factor; H. Weich, GBF Braunschweig) and 10 μg/ml of heparin. As a control, 6 wells in each dish were not stimulated.
The compounds according to the invention were dissolved in 100% dimethylsulphoxide and added to the cultures in various dilutions as triple measurements, the maximum dimethylsulphoxide concentration being 0.3%.
The cells were incubated for 76 hours at 37° C., then for a further 16 hours ^3H-thymidine (0.1 μCi/well, Amersham) was added in order to determine the DNA synthesis. Then the radioactively labelled cells were immobilised on filter mats and the radioactivity incorporated was measured in a β-counter. In order to determine the inhibitory activity of the compounds according to the invention the mean value of the non-stimulated cells was subtracted from the mean value of the factor-stimulated cells (in the presence or absence of the compounds according to the invention).
The relative cell proliferation was calculated as a percentage of the control (HUVEC without inhibitor) and the concentration of active substance which inhibits the proliferation of the cells by 50% (IC50) was determined.

| Molecule | IC50 [nM] |
| --- | --- |
| COC(=O)c1ccc2c(c1)NC(=O)/C2=C(\Nc1ccc(C(=O)N(C)CCN(C)C)cc1)c1ccccc1 [(a), methyl 3-(Z)-[1-{4-[N-(2-dimethylamino-ethyl)-N-methyl-carbamoyl]-phenylamino}-1-phenyl-methylidene]-2-indolinone-6-carboxylate] | 40 |
| COC(=O)c1ccc2c(c1)NC(=O)/C2=C(\Nc1ccc(C(=O)N(C)CCCN(C)C)cc1)c1ccccc1 [(b), methyl 3-(Z)-[1-{4-[N-(3-dimethylamino-propyl)-N-methyl-carbamoyl]-phenylamino}-1-phenyl-methylidene]-2-indolinone-6-carboxylate] | 20 |
| methyl 3-(Z)-[1-{4-[(4-(2-hydroxy-ethyl)-piperazin-1-yl)-carbonyl]-phenylamino}1-phenyl-methylidene]-2-indolinone-6-carboxylate [(i)] | 20 |
| methyl 3-(Z)-[1-{4-[(4-ethyl-piperazin-1-yl)-carbonyl]-phenylamino}-1-phenyl-methylidene]-2-indolinone-6-carboxylate [(h)] | 20 |
| methyl 3-(Z)-[1-{4-[(4-hydroxy-piperidin-1-yl)-carbonyl]-phenylamino}-1-phenyl-methylidene]-2-indolinone-6-carboxylate [(d)] | 50 |
| methyl 3-(Z)-[1-{4-[(4-methyl-piperazin-1-yl)-carbonyl]-phenylamino}-1-phenyl-methylidene]-2-indolinone-6-carboxylate [(c)] | 30 |
